The test system of experiment [1] is IL-8 release. In words: LPS- or CSE-induced IL-8 release in isolated peripheral blood neutrophils (ELISA). The settings on record: 6 h. Type of experiment: cell-based, human. The method, then:
Neutrophils and monocytes were isolated from peripheral venous blood by standard laboratory procedures. In brief, peripheral venous blood was mixed with dextran 500 at 3% (in 0.9% saline) in a proportion of 2:1. This mixture was incubated at room temperature for 30 min until erythrocytes were sedimented. The upper phase was carefully collected and added on Ficoll-Paque Histopaque 1077 (Amershan Pharmacia Biotech, Barcelona, Spain) density gradient in a proportion of 3:1. The two phases generated were centrifuged at 150 g, 4° C. for 30 min. Thus, the interface was collected to isolate monocytes, and the pellet obtained (which is consisted a mixture of neutrophils and low proportion of residual erythrocytes and traces of eosinophils and basophils) was resuspended in an erythrocyte lysis buffer (Biolegend, UK) for 5 min in ice. Cell suspension was washed two times with phosphate buffer (PBS).
CSE was prepared as previously outlined (Milara et al.; Ortiz et al.). Briefly, the smoke of a research cigarette (2R4F; Tobacco Health Research, University of Kentucky, KY, USA) was generated by a respiratory pump (Apparatus Rodent Respirator 680; Harvard, Germany) through a puffing mechanism related to the human smoking pattern (3 puff/min; 1 puff 35 ml; each puff of 2 s duration with 0.5 cm above the filter) and was bubbled into a flask containing 25 ml of pre-warmed (37° C.) RPMI 1640 culture medium supplemented as describe above. The CSE solution was sterilized by filtration through a 0.22-μm cellulose acetate sterilizing system (Corning, N.Y.). The resultant CSE solution was considered to be 100% CSE and was used for experiments within 30 min of preparation. CSE 10% corresponds approximately to the exposure associated with smoking two packs per day (Su et al., 1998). The quality of the prepared CSE solution was assessed based on the absorbance at 320 nm, which is the specific absorption wavelength of peroxynitrite. Stock solutions with an absorbance value of 3.0±0.1 were used. To test for cytotoxicity from CSE, isolated neutrophils and monocytes were treated with CSE concentrations of up to 5% for 24.
Peripheral neutrophil cell suspension was adjusted to 500×10^3 cells per well in 24-well plates and incubated in RPMI culture medium for 1 h into the incubator at 37° C., 5% CO2. […] Both the stimulus and drug were remained together for 6 h. Supernatants were collected and centrifuged at 120 g for 5 min, and the free-cell supernatant was used to measure IL-8, MMP-9, IL-1β, GM-CSF and CCL-5.
IL-8 was determined by using commercially available enzyme-linked immunosorbent assay kit for IL-8 (R&D Systems, UK) according to the manufacturer's protocol. MMP-9, IL-1β, GM-CSF and CCL-5 were measured by LUMINEX technology according to the manufacturer's protocol.
Data were presented as mean±SEM. IC50 values were calculated for each drug and their combinations. Statistical analysis of results was carried out by analysis of variance (ANOVA) followed by Bonferroni test, by Student's t test, or by non-parametric tests as appropriate (GraphPad Software Inc, San Diego, Calif., USA). Significance was accepted when P<0.05. For clinical correlations of lung function and gene expression from neutrophils the non-parametric Spearman correlation analysis was carried out.
On the technique in general: In an ELISA, binding on a coated surface is turned into a signal by an enzyme label.

The subject of experiment [2] is p-ERK1/2. Kind of experiment: Western blot of ERK1/2 phosphorylation in CSE-stimulated neutrophils from COPD patients. The settings on record: RNO 1 nM and 1 μM, DEX 1 μM, RNO 1 nM plus DEX 1 μM, NAC 1 mM for 1 h, then CSE 5% 20 min. Format: cell-based, human. The method, then:
Neutrophils and monocytes were isolated from peripheral venous blood by standard laboratory procedures. In brief, peripheral venous blood was mixed with dextran 500 at 3% (in 0.9% saline) in a proportion of 2:1. This mixture was incubated at room temperature for 30 min until erythrocytes were sedimented. The upper phase was carefully collected and added on Ficoll-Paque Histopaque 1077 (Amershan Pharmacia Biotech, Barcelona, Spain) density gradient in a proportion of 3:1. The two phases generated were centrifuged at 150 g, 4° C. for 30 min. […]
CSE was prepared as previously outlined (Milara et al.; Ortiz et al.). […] The quality of the prepared CSE solution was assessed based on the absorbance at 320 nm, which is the specific absorption wavelength of peroxynitrite. Stock solutions with an absorbance value of 3.0±0.1 were used. […]
Western blot analysis was used to detect changes in p-ERK1/2 (42-44 kD). […] Cells were then centrifuged and the total protein was extracted using a lysis buffer consisting of a complete inhibitor cocktail plus 1 mM ethylenediaminetetraacectic acid (Roche Diagnostics Ltd, West Sussex, UK) with 20 mM Tris base, 0.9% NaCl, 0.1% Triton X-100, 1 mM dithiothreitol and 1 μg mL^−1 pepstatin A. The Bio-Rad assay (Bio-Rad Laboratories Ltd., Herts, UK) was used (following manufacturer's instructions) to quantify the level of protein in each sample to ensure equal protein loading. […]

Where [3] appears, read: CSE 5%, neutrophils from COPD patients.
The mark [4] stands for this setting: CSE 5%, neutrophils from HEALTHY.
[5] abbreviates: LPS (1 μg/ml), neutrophils from COPD patients.
[6] abbreviates: LPS (1 μg/ml), neutrophils from HEALTHY.

Molecules are shown by their SMILES.

As for `O=C(Nc1c(Cl)c[n+]([O-])cc1Cl)c1ccc(OC(F)F)c(OCC2CC2)c1` [RNO, roflumilast N-oxide], the “-log IC50, inhibition of IL-8 release” value is recorded as 7.92 ± 0.1 in experiment [1] (setting [3]), 7.95 ± 0.12 in experiment [1] (setting [4]), 7.44 ± 0.24 in experiment [1] (setting [5]) and 7.46 ± 0.26 in experiment [1] (setting [6]). Also, the “Maximal % Inhibition of IL-8 release” value is 88.9 ± 5.62% in experiment [1] (setting [3]), 90.4 ± 5.4% in experiment [1] (setting [4]), 48.70 ± 5.18% in experiment [1] (setting [5]) and 40.50 ± 4.55% in experiment [1] (setting [6]). Further, in experiment [2], the “effect on CSE-induced phosphorylation of ERK1/2” value was “effectively inhibited”.

(Values after patent US20150164916A1, “ROFLUMILAST COMPOSITIONS FOR THE TREATMENT OF COPD” (Forest Laboratories Holdings Ltd., priority 2012, published 2015).)
